Assay results taken from patent US20250353891A1 (MEDIMMUNE LIMITED, priority 2022, published 2025).
Each block holds one compound with its values, some of them ahead of it. Starred links: 1 amine or outer side, 2 acyl side, 3 side chain; linkers in the order of their positions; H or OH if unused. Non-standard residues stand in square brackets, D forms with d. Residues, ends and D or L forms follow the SMILES beside them. Groups on a side chain read outwards from the residue. *: point of attachment. C20 diacid = O=C(O)CCCCCCCCCCCCCCCCCCC(=O)*; C18 diacid = O=C(O)CCCCCCCCCCCCCCCCC(=O)*; γGlu = O=C(O)[C@H](CCC(=O)[*:2])N[*:1]; αMeF = C[C@](N)(Cc1ccccc1)C(=O)O; PEG4 = NCCOCCOCCOCCOCCC(=O)O; PEG2 = NCCOCCOCCC(=O)O; AEEA = NCCOCCOCC(=O)O; Aib = CC(C)(N)C(=O)O

Columns and labels:
[1] = target: human GLP-1 receptor (hGLP-1R) (Homo sapiens, UniProt P43220); experiment: cAMP production (HTRF) in CHO cells expressing hGLP-1R; format: cell-based; parameters: expressed in transfected cells; conditions: for EC50: Table 7, peptides modified at position 20, cAMP in CHO hGLP-1R cells, geometric mean, read-out: hGLP-1R EC50; for % Relative Potency Ratio: Table 7, % GLP-1R activity relative to GLP-1 / % GlucR activity relative to glucagon
Chain of human GLP-1 receptor (hGLP-1R) (P43220 24-463): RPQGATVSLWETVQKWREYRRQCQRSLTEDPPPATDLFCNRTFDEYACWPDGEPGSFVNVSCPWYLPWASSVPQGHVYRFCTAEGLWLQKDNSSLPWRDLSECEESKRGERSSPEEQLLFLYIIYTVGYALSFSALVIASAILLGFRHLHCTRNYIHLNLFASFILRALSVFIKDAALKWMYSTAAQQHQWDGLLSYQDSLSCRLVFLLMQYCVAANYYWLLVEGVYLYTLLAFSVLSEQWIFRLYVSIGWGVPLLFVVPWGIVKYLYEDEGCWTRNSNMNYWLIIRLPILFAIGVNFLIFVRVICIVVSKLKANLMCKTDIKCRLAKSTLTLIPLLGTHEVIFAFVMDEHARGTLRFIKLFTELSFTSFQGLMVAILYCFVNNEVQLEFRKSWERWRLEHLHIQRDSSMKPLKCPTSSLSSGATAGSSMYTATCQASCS
Outline: (§1)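 Read-out: HTRF cAMP (anti-cAMP cryptate donor, cAMP-d2 acceptor in conjugate/lysis buffer), converted to % Delta F and fitted by 4-parameter logistic for EC50. Cell densities were 1×10^5 cells/mL (hGLP-1R) or 2×10^5 cells/mL (hGCGR). Stimulation lasted 30 min at room temperature.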

[2] = target: human glucagon receptor (hGCGR) (Homo sapiens, UniProt P47871); experiment: cAMP production (HTRF) in CHO cells expressing hGCGR; format: cell-based; parameters: expressed in transfected cells; conditions: Table 7, peptides modified at position 20; cAMP in CHO hGCGR cells; geometric mean; read-out: hGluc-R EC50
Chain of human glucagon receptor (hGCGR) (P47871 26-477): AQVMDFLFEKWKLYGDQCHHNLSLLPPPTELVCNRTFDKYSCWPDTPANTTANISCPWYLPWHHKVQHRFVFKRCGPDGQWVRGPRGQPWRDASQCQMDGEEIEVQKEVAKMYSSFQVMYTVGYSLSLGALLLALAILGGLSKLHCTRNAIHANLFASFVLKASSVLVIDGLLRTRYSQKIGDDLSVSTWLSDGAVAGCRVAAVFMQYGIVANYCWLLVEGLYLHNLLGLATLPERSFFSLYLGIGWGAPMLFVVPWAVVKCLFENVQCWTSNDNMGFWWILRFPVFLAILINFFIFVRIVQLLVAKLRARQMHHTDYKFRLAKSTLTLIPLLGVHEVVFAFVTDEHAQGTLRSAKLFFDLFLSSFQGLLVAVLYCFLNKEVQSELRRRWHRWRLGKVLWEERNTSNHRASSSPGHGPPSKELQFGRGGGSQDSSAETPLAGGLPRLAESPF
Outline: as §1

Structure (SMILES): CC[C@H](C)[C@H](NC(=O)C(C)(C)NC(=O)[C@H](CCC(N)=O)NC(=O)[C@@H](NC(=O)[C@](C)(Cc1ccccc1)NC(=O)[C@H](CC(=O)O)NC(=O)[C@H](CCCCNC(=O)CCOCCOCCNC(=O)CCOCCOCCNC(=O)CC[C@H](NC(=O)CC[C@H](NC(=O)CCCCCCCCCCCCCCCCCCC(=O)O)C(=O)O)C(=O)O)NC(=O)[C@H](C)NC(=O)[C@H](C)NC(=O)[C@H](CCCNC(=N)N)NC(=O)[C@H](CO)NC(=O)[C@H](CC(=O)O)NC(=O)[C@H](CC(C)C)NC(=O)[C@](C)(Cc1ccccc1)NC(=O)[C@H](CCCCN)NC(=O)[C@H](CO)NC(=O)[C@@H](NC(=O)[C@H](CC(=O)O)NC(=O)[C@H](CO)NC(=O)[C@@H](NC(=O)[C@](C)(Cc1ccccc1)NC(=O)[C@H](CO)NC(=O)CNC(=O)[C@H](Cc1c[nH]cn1)NC(=O)C(C)(C)NC(=O)[C@@H](N)Cc1c[nH]cn1)[C@@H](C)O)C(C)C)C(C)C)C(=O)N[C@@H](C)C(=O)N[C@@H](CC(N)=O)C(=O)N[C@H](C(N)=O)[C@@H](C)O [Peptide 264] (H-H[Aib]HGS[αMeF]TSDVSK[αMeF]LDSRAAK([PEG2-PEG2-γGlu-γGlu-C20 diacid])D[αMeF]VQ[Aib]IANT-NH2)
EC50 [1]: 69.5 pM
% Relative Potency Ratio [1]: 8.5
EC50 [2]: 297 pM

Structure (SMILES): CC[C@H](C)[C@H](NC(=O)C(C)(C)NC(=O)[C@H](CCC(N)=O)NC(=O)[C@@H](NC(=O)[C@](C)(Cc1ccccc1)NC(=O)[C@H](CC(=O)O)NC(=O)[C@H](CCCCNC(=O)COCCOCCNC(=O)CC[C@H](NC(=O)COCCOCCNC(=O)CCCCCCCCCCCCCCCCCCC(=O)O)C(=O)O)NC(=O)[C@H](C)NC(=O)[C@H](C)NC(=O)[C@H](CCCNC(=N)N)NC(=O)[C@H](CO)NC(=O)[C@H](CC(=O)O)NC(=O)[C@H](CC(C)C)NC(=O)[C@](C)(Cc1ccccc1)NC(=O)[C@H](CCCCN)NC(=O)[C@H](CO)NC(=O)[C@@H](NC(=O)[C@H](CC(=O)O)NC(=O)[C@H](CO)NC(=O)[C@@H](NC(=O)[C@](C)(Cc1ccccc1)NC(=O)[C@H](CO)NC(=O)CNC(=O)[C@H](Cc1c[nH]cn1)NC(=O)C(C)(C)NC(=O)[C@@H](N)Cc1c[nH]cn1)[C@@H](C)O)C(C)C)C(C)C)C(=O)N[C@@H](C)C(=O)N[C@@H](CC(N)=O)C(=O)N[C@H](C(N)=O)[C@@H](C)O [Peptide 265] (H-H[Aib]HGS[αMeF]TSDVSK[αMeF]LDSRAAK([AEEA-γGlu-AEEA-C20 diacid])D[αMeF]VQ[Aib]IANT-NH2)
EC50 [1]: 71.2 pM
% Relative Potency Ratio [1]: 3.6
EC50 [2]: 131 pM

Structure (SMILES): CC[C@H](C)[C@H](NC(=O)C(C)(C)NC(=O)[C@H](CCC(N)=O)NC(=O)[C@@H](NC(=O)[C@](C)(Cc1ccccc1)NC(=O)[C@H](CC(=O)O)NC(=O)[C@H](CCCCNC(=O)COCCOCCNC(=O)CC[C@H](NC(=O)COCCOCCNC(=O)CC[C@H](NC(=O)CCCCCCCCCCCCCCCCCCC(=O)O)C(=O)O)C(=O)O)NC(=O)[C@H](C)NC(=O)[C@H](C)NC(=O)[C@H](CCCNC(=N)N)NC(=O)[C@H](CO)NC(=O)[C@H](CC(=O)O)NC(=O)[C@H](CC(C)C)NC(=O)[C@](C)(Cc1ccccc1)NC(=O)[C@H](CCCCN)NC(=O)[C@H](CO)NC(=O)[C@@H](NC(=O)[C@H](CC(=O)O)NC(=O)[C@H](CO)NC(=O)[C@@H](NC(=O)[C@](C)(Cc1ccccc1)NC(=O)[C@H](CO)NC(=O)CNC(=O)[C@H](Cc1c[nH]cn1)NC(=O)C(C)(C)NC(=O)[C@@H](N)Cc1c[nH]cn1)[C@@H](C)O)C(C)C)C(C)C)C(=O)N[C@@H](C)C(=O)N[C@@H](CC(N)=O)C(=O)N[C@H](C(N)=O)[C@@H](C)O [Peptide 266] (H-H[Aib]HGS[αMeF]TSDVSK[αMeF]LDSRAAK([AEEA-γGlu-AEEA-γGlu-C20 diacid])D[αMeF]VQ[Aib]IANT-NH2)
EC50 [1]: 66.5 pM
% Relative Potency Ratio [1]: 8.7
EC50 [2]: 293 pM

Structure (SMILES): CC[C@H](C)[C@H](NC(=O)C(C)(C)NC(=O)[C@H](CCC(N)=O)NC(=O)[C@@H](NC(=O)[C@](C)(Cc1ccccc1)NC(=O)[C@H](CC(=O)O)NC(=O)[C@H](CCCCNC(=O)CCOCCOCCOCCOCCNC(=O)CC[C@H](NC(=O)CCCCCCCCCCCCCCCCCCC(=O)O)C(=O)O)NC(=O)[C@H](C)NC(=O)[C@H](C)NC(=O)[C@H](CCCNC(=N)N)NC(=O)[C@H](CO)NC(=O)[C@H](CC(=O)O)NC(=O)[C@H](CC(C)C)NC(=O)[C@](C)(Cc1ccccc1)NC(=O)[C@H](CCCCN)NC(=O)[C@H](CO)NC(=O)[C@@H](NC(=O)[C@H](CC(=O)O)NC(=O)[C@H](CO)NC(=O)[C@@H](NC(=O)[C@](C)(Cc1ccccc1)NC(=O)[C@H](CO)NC(=O)CNC(=O)[C@H](Cc1c[nH]cn1)NC(=O)C(C)(C)NC(=O)[C@@H](N)Cc1c[nH]cn1)[C@@H](C)O)C(C)C)C(C)C)C(=O)N[C@@H](C)C(=O)N[C@@H](CC(N)=O)C(=O)N[C@H](C(N)=O)[C@@H](C)O [Peptide 267] (H-H[Aib]HGS[αMeF]TSDVSK[αMeF]LDSRAAK([PEG4-γGlu-C20 diacid])D[αMeF]VQ[Aib]IANT-NH2)
EC50 [1]: 65.6 pM
% Relative Potency Ratio [1]: 3.9
EC50 [2]: 128 pM

Structure (SMILES): CC[C@H](C)[C@H](NC(=O)C(C)(C)NC(=O)[C@H](CCC(N)=O)NC(=O)[C@@H](NC(=O)[C@](C)(Cc1ccccc1)NC(=O)[C@H](CC(=O)O)NC(=O)[C@H](CCCCNC(=O)CC[C@H](NC(=O)CCCCCCCCCCCCCCCCC(=O)O)C(=O)O)NC(=O)[C@H](C)NC(=O)[C@H](C)NC(=O)[C@H](CCCNC(=N)N)NC(=O)[C@H](CO)NC(=O)[C@H](CC(=O)O)NC(=O)[C@H](CC(C)C)NC(=O)[C@](C)(Cc1ccccc1)NC(=O)[C@H](CCCCN)NC(=O)[C@H](CO)NC(=O)[C@@H](NC(=O)[C@H](CC(=O)O)NC(=O)[C@H](CO)NC(=O)[C@@H](NC(=O)[C@](C)(Cc1ccccc1)NC(=O)[C@H](CO)NC(=O)CNC(=O)[C@H](Cc1c[nH]cn1)NC(=O)C(C)(C)NC(=O)[C@@H](N)Cc1c[nH]cn1)[C@@H](C)O)C(C)C)C(C)C)C(=O)N[C@@H](C)C(=O)N[C@@H](CC(N)=O)C(=O)N[C@H](C(N)=O)[C@@H](C)O [Peptide 271] (H-H[Aib]HGS[αMeF]TSDVSK[αMeF]LDSRAAK([γGlu-C18 diacid])D[αMeF]VQ[Aib]IANT-NH2; N-terminus assumed)
EC50 [1]: 54.6 pM
% Relative Potency Ratio [1]: 1.0
EC50 [2]: 28 pM

Stronger by EC50 [1], values ahead:

EC50 [1]: 39.5 pM
% Relative Potency Ratio [1]: 1.5
EC50 [2]: 29.3 pM
Structure (SMILES): CC[C@H](C)[C@H](NC(=O)C(C)(C)NC(=O)[C@H](CCC(N)=O)NC(=O)[C@@H](NC(=O)[C@](C)(Cc1ccccc1)NC(=O)[C@H](CC(=O)O)NC(=O)[C@H](CCCCNC(=O)COCCOCCNC(=O)CC[C@H](NC(=O)CCCCCCCCCCCCCCCCCCC(=O)O)C(=O)O)NC(=O)[C@H](C)NC(=O)[C@H](C)NC(=O)[C@H](CCCNC(=N)N)NC(=O)[C@H](CO)NC(=O)[C@H](CC(=O)O)NC(=O)[C@H](CC(C)C)NC(=O)[C@](C)(Cc1ccccc1)NC(=O)[C@H](CCCCN)NC(=O)[C@H](CO)NC(=O)[C@@H](NC(=O)[C@H](CC(=O)O)NC(=O)[C@H](CO)NC(=O)[C@@H](NC(=O)[C@](C)(Cc1ccccc1)NC(=O)[C@H](CO)NC(=O)CNC(=O)[C@H](Cc1c[nH]cn1)NC(=O)C(C)(C)NC(=O)[C@@H](N)Cc1c[nH]cn1)[C@@H](C)O)C(C)C)C(C)C)C(=O)N[C@@H](C)C(=O)N[C@@H](CC(N)=O)C(=O)N[C@H](C(N)=O)[C@@H](C)O [Peptide 268] (H-H[Aib]HGS[αMeF]TSDVSK[αMeF]LDSRAAK([AEEA-γGlu-C20 diacid])D[αMeF]VQ[Aib]IANT-NH2; N-terminus assumed)

EC50 [1]: 52 pM
% Relative Potency Ratio [1]: 10.3
EC50 [2]: 271 pM
Structure (SMILES): CC[C@H](C)[C@H](NC(=O)C(C)(C)NC(=O)[C@H](CCC(N)=O)NC(=O)[C@@H](NC(=O)[C@](C)(Cc1ccccc1)NC(=O)[C@H](CC(=O)O)NC(=O)[C@H](CCCCNC(=O)CCOCCOCCOCCOCCNC(=O)CC[C@H](NC(=O)CC[C@H](NC(=O)CCCCCCCCCCCCCCCCCCC(=O)O)C(=O)O)C(=O)O)NC(=O)[C@H](C)NC(=O)[C@H](C)NC(=O)[C@H](CCCNC(=N)N)NC(=O)[C@H](CO)NC(=O)[C@H](CC(=O)O)NC(=O)[C@H](CC(C)C)NC(=O)[C@](C)(Cc1ccccc1)NC(=O)[C@H](CCCCN)NC(=O)[C@H](CO)NC(=O)[C@@H](NC(=O)[C@H](CC(=O)O)NC(=O)[C@H](CO)NC(=O)[C@@H](NC(=O)[C@](C)(Cc1ccccc1)NC(=O)[C@H](CO)NC(=O)CNC(=O)[C@H](Cc1c[nH]cn1)NC(=O)C(C)(C)NC(=O)[C@@H](N)Cc1c[nH]cn1)[C@@H](C)O)C(C)C)C(C)C)C(=O)N[C@@H](C)C(=O)N[C@@H](CC(N)=O)C(=O)N[C@H](C(N)=O)[C@@H](C)O [Peptide 269] (H-H[Aib]HGS[αMeF]TSDVSK[αMeF]LDSRAAK([PEG4-γGlu-γGlu-C20 diacid])D[αMeF]VQ[Aib]IANT-NH2; N-terminus assumed)

EC50 [1]: 24.4 pM
% Relative Potency Ratio [1]: 2.5
EC50 [2]: 31.3 pM
Structure (SMILES): CC[C@H](C)[C@H](NC(=O)C(C)(C)NC(=O)[C@H](CCC(N)=O)NC(=O)[C@@H](NC(=O)[C@](C)(Cc1ccccc1)NC(=O)[C@H](CC(=O)O)NC(=O)[C@H](CCCCNC(=O)CC[C@H](NC(=O)CC[C@H](NC(=O)CCCCCCCCCCCCCCCCC(=O)O)C(=O)O)C(=O)O)NC(=O)[C@H](C)NC(=O)[C@H](C)NC(=O)[C@H](CCCNC(=N)N)NC(=O)[C@H](CO)NC(=O)[C@H](CC(=O)O)NC(=O)[C@H](CC(C)C)NC(=O)[C@](C)(Cc1ccccc1)NC(=O)[C@H](CCCCN)NC(=O)[C@H](CO)NC(=O)[C@@H](NC(=O)[C@H](CC(=O)O)NC(=O)[C@H](CO)NC(=O)[C@@H](NC(=O)[C@](C)(Cc1ccccc1)NC(=O)[C@H](CO)NC(=O)CNC(=O)[C@H](Cc1c[nH]cn1)NC(=O)C(C)(C)NC(=O)[C@@H](N)Cc1c[nH]cn1)[C@@H](C)O)C(C)C)C(C)C)C(=O)N[C@@H](C)C(=O)N[C@@H](CC(N)=O)C(=O)N[C@H](C(N)=O)[C@@H](C)O [Peptide 270] (H-H[Aib]HGS[αMeF]TSDVSK[αMeF]LDSRAAK([γGlu-γGlu-C18 diacid])D[αMeF]VQ[Aib]IANT-NH2)
